Measured values: ChEMBL document CHEMBL1135060, “Design and synthesis of peptide-based carboxylic acid-containing transition-state inhibitors of human neutrophil elastase” (Bioorg Med Chem Lett, 2002)

Tests used:
Cricetinae gen. sp. [1] = test: The compound was evaluated for its ability to inhibit the human neutrophil elastase-induced lung hemorrhage in hamster by intravenous bolus administration of 30 mg/Kg dose; assay type: functional, Cricetulus griseus
Cricetinae gen. sp. [2] = test: The compound was evaluated for its ability to inhibit the human neutrophil elastase-induced lung hemorrhage in hamster by intravenous bolus administration of 100 mg/Kg dose; assay type: functional, Cricetulus griseus
Neutrophil elastase = target: T1, Neutrophil elastase (Homo sapiens, UniProt P08246); test: In vitro inhibition of the human neutrophil elastase-catalyzed hydrolysis of the synthetic substrate Suc-Ala-Pro-Ala-MCA
T1 sequence (P08246 whole entry): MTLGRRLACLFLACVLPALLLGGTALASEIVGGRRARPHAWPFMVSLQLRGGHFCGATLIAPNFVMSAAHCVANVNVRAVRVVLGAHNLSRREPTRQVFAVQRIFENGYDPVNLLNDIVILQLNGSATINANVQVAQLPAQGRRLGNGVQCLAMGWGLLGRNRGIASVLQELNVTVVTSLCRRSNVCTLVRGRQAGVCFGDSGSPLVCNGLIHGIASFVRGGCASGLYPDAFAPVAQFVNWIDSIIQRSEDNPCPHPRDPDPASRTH

Cricetinae gen. sp. [3] = test: The compound was evaluated for its ability to inhibit the HNE-induced lung hemorrhage in hamster by intravenous bolus administration of 10 mg/Kg dose; assay type: functional, Cricetulus griseus
Cricetinae gen. sp. [4] = test: The compound was evaluated for its ability to inhibit the human neutrophil elastase-induced lung hemorrhage in hamster by intravenous bolus administration of 10 mg/Kg dose; assay type: functional, Cricetulus griseus
Cricetinae gen. sp. [5] = test: The compound was evaluated for its ability to inhibit the human neutrophil elastase-induced lung hemorrhage in hamster by intravenous bolus administration of 30 mg/kg dose; assay type: functional, Cricetulus griseus
Cricetinae gen. sp. [6] = test: The compound was evaluated for its ability to inhibit the human neutrophil elastase-induced lung hemorrhage in hamster by intravenous bolus administration of 10 mg/kg dose; assay type: functional, Cricetulus griseus

Compound | inhibition in vivo at 30 mg/kg (Cricetinae gen. sp. [1]) [%] | IC50 (Neutrophil elastase) [nM] | other results
CC(C)[C@H](NC(=O)[C@@H]1CCCN1C(=O)[C@H](NC(=O)COc1ccc(OCC(=O)O)cc1)C(C)C)C(=O)c1nc2ccccc2o1 | 56 |  | inhibition in vivo at 100 mg/kg (Cricetinae gen. sp. [2]): 98%
CCCCC(Oc1cccc2oc(C(=O)[C@@H](NC(=O)OCc3ccccc3)C(C)C)nc12)c1ccccc1 (stereo not given in full) |  | > 10000 | 
CC(C)[C@H](NC(=O)OCc1ccccc1)C(=O)c1nc2ccccc2o1 |  | > 10000 | 
CC(C)[C@H](NC(=O)COc1ccc(OCC(=O)O)cc1)C(=O)c1nc2c(OC(=O)C(C)(C)C)cccc2o1 | 13 | 130 | inhibition in vivo at 100 mg/kg (Cricetinae gen. sp. [2]): 74%
CC(C)[C@H](NC(=O)[C@@H]1CCCN1C(=O)[C@@H](NC(=O)COC(=O)c1ccc(OCC(=O)O)cc1)C(C)C)C(=O)c1nc2ccccc2o1 | 75 | 13 | inhibition in vivo at 10 mg/kg (Cricetinae gen. sp. [3]): 12%
CCCCCOc1cccc2oc(C(=O)[C@@H](NC(=O)OCc3ccccc3)C(C)C)nc12 |  | > 10000 | 
CC(C)[C@H](NC(=O)[C@@H]1CCCN1C(=O)[C@@H](NC(=O)/C=C/C(=O)O)C(C)C)C(=O)c1nc2ccccc2o1 |  | 72 | 
CC(C)CCOc1cccc2oc(C(=O)[C@@H](NC(=O)[C@H]3CCCN3C(=O)COc3ccc(OCC(=O)O)cc3)C(C)C)nc12 | -16 | 290 | inhibition in vivo at 100 mg/kg (Cricetinae gen. sp. [2]): 99%
CC(C)[C@H](NC(=O)OCc1ccccc1)C(=O)c1nc2c(OCc3ccccc3)cccc2o1 |  | > 10000 | 
CC(C)[C@H](NC(=O)[C@@H]1CCCN1C(=O)[C@@H](NC(=O)COc1ccc(SCC(C)(C)C(=O)O)cc1)C(C)C)C(=O)c1nc2ccccc2o1 |  | 3.5 | inhibition in vivo at 10 mg/kg (Cricetinae gen. sp. [4]): 30%; inhibition in vivo at 30 mg/kg (Cricetinae gen. sp. [5]): 86%; inhibition in vivo at 100 mg/kg (Cricetinae gen. sp. [2]): 99%
CC(C)[C@H](NC(=O)[C@@H]1CCCN1C(=O)[C@@H](NC(=O)CNC(=O)c1ccc(OCC(=O)O)cc1)C(C)C)C(=O)c1nc2ccccc2o1 |  | 33 | inhibition in vivo at 10 mg/kg (Cricetinae gen. sp. [6]): 46%; inhibition in vivo at 30 mg/kg (Cricetinae gen. sp. [5]): 99%
CC(C)[C@H](NC(=O)OCc1ccccc1)C(=O)c1nc2c(OCC(N)=O)cccc2o1 |  | > 10000 | 
CC(C)[C@H](NC(=O)OCc1ccccc1)C(=O)c1nc2c(O)cccc2o1 |  | > 10000 | 
CC(C)CCOc1cccc2oc(C(=O)[C@@H](NC(=O)OCc3ccccc3)C(C)C)nc12 |  | 7800 | 
CC(C)[C@H](NC(=O)[C@@H]1CCCN1C(=O)[C@@H](NC(=O)N[C@H](C)C(=O)O)C(C)C)C(=O)c1nc2ccccc2o1 | 39 | 280 | 
CC(C)[C@H](NC(=O)[C@H]1CCCN1C(=O)COc1ccc(OCC(=O)O)cc1)C(=O)c1nc2c(OC(=O)C(C)(C)C)cccc2o1 | 66 | 230 | inhibition in vivo at 100 mg/kg (Cricetinae gen. sp. [2]): 96%
COC(=O)COc1cccc2oc(C(=O)[C@@H](NC(=O)OCc3ccccc3)C(C)C)nc12 |  | > 10000 | 
CC(C)[C@H](NC(=O)[C@@H]1CCCN1C(=O)[C@@H](NC(=O)COc1ccccc1OCC(=O)O)C(C)C)C(=O)c1nc2ccccc2o1 | 48 | 7.2 | inhibition in vivo at 10 mg/kg (Cricetinae gen. sp. [4]): 37%; inhibition in vivo at 100 mg/kg (Cricetinae gen. sp. [2]): 90%
CC(C)[C@H](NC(=O)OCc1ccccc1)C(=O)c1nc2c(OCc3cccc(C(F)(F)F)c3)cccc2o1 |  | > 10000 | 
CC(C)=CCOc1cccc2oc(C(=O)[C@@H](NC(=O)OCc3ccccc3)C(C)C)nc12 |  | > 10000 | 
CC(C)[C@H](NC(=O)[C@@H]1CCCN1C(=O)[C@@H](NC(=O)c1ccc(OCC(=O)O)cc1)C(C)C)C(=O)c1nc2ccccc2o1 | 60 | 7.4 | inhibition in vivo at 10 mg/kg (Cricetinae gen. sp. [4]): 15%
CC(C)[C@H](NC(=O)OCc1ccccc1)C(=O)c1nc2c(OC(=O)C(C)(C)C)cccc2o1 |  | 450 | 
CC(C)[C@H](NC(=O)[C@@H]1CCCN1C(=O)[C@@H](NC(=O)CCC(=O)O)C(C)C)C(=O)c1nc2ccccc2o1 | 61 | 66 | 
CC(C)[C@H](NC(=O)OCc1ccccc1)C(=O)c1nc2c(OCC(=O)O)cccc2o1 |  | > 10000 | 
CC(C)[C@H](NC(=O)[C@@H]1CCCN1C(=O)[C@@H](NC(=O)COc1ccc(OCC(=O)O)cc1)C(C)C)C(=O)c1nc2c(OC(=O)C(C)(C)C)cccc2o1 | 73 | 8.9 | inhibition in vivo at 100 mg/kg (Cricetinae gen. sp. [2]): 99%
CCOc1cccc2oc(C(=O)[C@@H](NC(=O)OCc3ccccc3)C(C)C)nc12 |  | > 10000 | 
CC(C)[C@H](NC(=O)OCc1ccccc1)C(=O)c1nc2c(OCCN(C)C)cccc2o1 |  | > 10000 | 
